Measured values reported in patent publication US20080280989A1, “Hydroxybenzamide Derivatives, the Method For Preparing Thereof and the Cosmetic Composition Containing the Same” (priority 2005, published 2008).
Where two headings read alike, the source gives them in different places.

What was measured:
[1] = tested on: Human keratinocyte HaCaT cell lines; assay: Anti-oxidative effect using HaCaT model (lipid peroxidation assay kit); assay type: cell-based; settings: for activity at 100 µM: Homo sapiens, read-out: Lipid peroxidation (%)
Protocol: The hydroxybenzamide compounds prepared in Examples 1-8 were determined for their anti-oxidative effects.
Human keratinocyte HaCaT cell lines were pipetted into 60 mm dishes in a cell count of 1.0×10^6 cells per dish, and were cultured by using a DMEM (FBS 10%) medium containing penicillin/streptomycin added thereto under the conditions of 37° C./5% CO2 for 1 day. Then, the cultured product was treated with each of the hydroxybenzamide compounds according to Examples 1˜8 in a concentration of 10˜4 mol. Also, the same cultured product was treated with the same concentration of tocopherol and resveratrol for 24 hours. In addition to the above, the cultured product was treated with t-BHT (t-butyl hydroperoxide) and cultured under the conditions of 37° C./5% CO2 for 4 hours to obtain cells. The cells were subjected to lysis by repeating freezing/thawing cycles. The following Test procedure was based on the method described in the assay kit used in this example.
In this example, Calbiochem Lipid peroxidation assay kit (Cat. No. 437634) was used as a test reagent, and lipid peroxidation was determined by using the mechanism of formation of stable compounds at 586 nm from the reaction between the above reagent and ester peroxides linked to long-chain unsaturated fatty acids, such as malondialdehyde (MDA) and 4-hydroxyalkenal (4-hydroxy-2(E)-nonenal, 4-HNE).

procollagen type(I) = assay: Stimulation of collagen biosynthesis (procollagen type(I) ELISA); assay type: cell-based; settings: Fibroblasts, 10 μM in serum-free medium, 24 hours, non-treated group taken as 100; for activity at 10 µM: Fibroblast
Protocol: The hydroxybenzamide compounds according to Examples 18 were determined for their effects of stimulating collagen biosynthesis, and the results were compared to the effects obtained from resveratrol and tocopherol.
Fibroblasts were seeded into a 24-well microtiter plate in a cell count of 10^5 cells per well and cultured to a growth level of 90%. The cultured product was further cultured in a serum-free DMEM medium for 24 hours. Next, the cultured product was treated with the hydroxybenzamide compounds according to Examples 1˜8, resveratrol and tocopherol, dissolved in a serum-free medium at a concentration of 10 μM, and then was cultured in a CO2 incubator for 24 hours. After decanting the supernatant, procollagen was determined by using a procollagen type(I) ELISA kit. The results are shown in the following Table 2, wherein the biosynthesis activity is expressed based on the biosynthesis activity of non-treated group, taken as 100.

collagenase = assay: Effect of inhibiting collagenase expression; assay type: cell-based; settings: Human fibroblasts, 10˜4M in serum-free DMEM, non-treated group taken as 100; for activity at 100 µM: Fibroblast
Protocol: The hydroxybenzamide compounds according to Examples 1˜8 were determined for their effects of inhibiting collagenase expression, and the results were compared to the effects obtained from resveratrol and tocopherol.
Human fibroblasts were introduced into a 96-well microtiter plate containing a DMEM (Dulbecco's Modified Eagle's Media) with 2.5% fetal bovine serum (FBS) in a cell count of 5,000 cells per well and cultured to a growth level of 90%. Then, the cultured product was further cultured in a serum-free DMEM medium for 24 hours. Next, the cultured product was treated with the hydroxybenzamide compounds according to Examples 18, resveratrol and tocopherol, dissolved in a serum-free DMEM medium at a concentration of 10˜4M, and then the cell culture was collected. The cell culture was evaluated for the production of collagenase by using a commercially available collagenase measuring system (Amersham Pharmacia, USA). First, the cell culture was introduced into a 96-well plate coated uniformly with primary collagenase antibodies, and then an antigen-antibody reaction was carried out in an incubator for 3 hours. After 3 hours, secondary collagenase antibodies, to which chromophores were bound, were introduced into the 96-well plate, and the reaction was further carried out for 15 minutes. After 15 minutes, a color developer was added thereto to develop a color at room temperature for 15 minutes, and 1M sulfuric acid was further added thereto to quench the reaction (color development). […] The yellow-colored 96-well plate was measured for absorptivity at 405 nm by using an absorption spectrometer, and a degree of collagenase synthesis was calculated according to the following Mathematical Formula 1. At this time, absorptivity of the cell culture in a non-treated group was used as a control.
Collagenase expression (%)=Absorptivity of the group treated with the corresponding sample/Absorptivity of the control×100 [Mathematical Formula 1]
The collagenase expression inhibiting activity was expressed based on the collagenase synthesis activity of the non-treated group, taken as 100.

[2] = Thermal stability according to isothermal discoloration test; assay type: physicochemical; parameters: key: 1: no discoloration; 2: discoloration into a light yellow color; 3: discoloration into a dark yellow color; 4: discoloration into a dark brown color; settings: 1000 pm in dimethylformaldehyde:ethanol:water=5:3:2, 40° C., naked eyes
Protocol: The hydroxybenzamide compounds according to Examples 18 were determined for their thermal stability as compared to resveratrol.
The test was performed by dissolving each of the hydroxybenzamide compounds according to Examples 1˜8 into a test solvent (dimethylformaldehyde:ethanol:water=5:3:2) in a concentration of 1000 pm, and by allowing the test samples to be left in an isothermal chamber at 40° C. for a test period of 30, 60 and 90 days. Then, the test samples were observed by the naked eyes to determine discoloration degrees.
Discoloration of the samples was graded into Grade 1 Grade 4 as follows:
2: discoloration into a light yellow color
3: discoloration into a dark yellow color
4: discoloration into a dark brown color

[3] = HaCaT cells, sample at 10˜4 mol for 24 hours, then t-BHT 4 hours, non-treated group = 100

Compound	activity at 100 µM [1, 3] [%]	activity at 10 µM (procollagen type(I)) [%]	activity at 100 µM (collagenase) [%]	Discoloration after 30 days [2]	Discoloration after 60 days [2]	Discoloration After 90 days [2]	activity at 100 µM ([1]; HaCaT, 24 h) [%]	Lipid peroxidation (%) [1, 3] [%]	Collagen biosynthesis activity (%) (procollagen type(I))	Collagenase expression (%) (collagenase)
O=C(Nc1ccc(O)cc1)c1cc(O)cc(O)c1 [Ex. 1, 3,5-dihydroxy-N-(4-hydroxyphenyl)benzamide]	170	143	67	1	1	1				
O=C(Nc1ccccc1O)c1cc(O)cc(O)c1 [Ex. 2, 3,5-dihydroxy-N-(2-hydroxyphenyl)benzamide]	180	121	69	1	1	1				
O=C(Nc1cccc(O)c1)c1cc(O)cc(O)c1 [Ex. 3, 3,5-dihydroxy-N-(3-hydroxyphenyl)benzamide]	182	122	71	1	1	1				
COc1ccc(NC(=O)c2cc(O)cc(O)c2)cc1 [Ex. 4, 3,5-dihydroxy-N-(4-methoxyphenyl)benzamide]	186	118	74	1	1	1				
COc1ccc(NC(=O)c2cc(O)cc(O)c2)cc1OC [Ex. 5, 3,5-dihydroxy-N-(3,4-dimethoxyphenyl)benzamide]	176	115	72	1	1	1				
COc1cc(NC(=O)c2cc(O)cc(O)c2)cc(OC)c1 [Ex. 6, 3,5-dihydroxy-N-(3,5-dimethoxyphenyl)benzamide]	172	116	71	1	1	1				
COc1cc(NC(=O)c2cc(O)cc(O)c2)cc(OC)c1OC [Ex. 7, 3,5-dihydroxy-N-(3,4,5-trimethoxyphenyl)benzamide]	179	119	70	1	1	1				
COc1ccc(NC(=O)c2cc(O)cc(O)c2)cc1O [Ex. 8, 3,5-dihydroxy-N-(3-hydroxy-4-methoxyphenyl)benzamide]	181	120	69	1	1	1				
Oc1ccc(C=Cc2cc(O)cc(O)c2)cc1 [Resveratrol, reference compound]	178	111	81	2	3	4				
CC(C)(C)OO [t-BHT, t-butyl hydroperoxide, reference compound]							320			
Tocopherol [reference compound]								250	113	95
